In PubChem BioAssay AID493003 (Sanford-Burnham Center for Chemical Genomics, 2010):
Active and inactive are the calls of the source. The rule behind the calls is not given here.

Tested on: S. cerevisiae tim10-1 mutant growth, luminescence
Assay: growth inhibitors of tim10-1 mutant yeast, dose response, luminescence, S. cerevisiae, uHTS hits (AID 493003);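 note: yeast growth measured after about 22 hours at 25 °C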

| Structure (SMILES) | IC50 |
| --- | --- |
| N/C(=N\OC(=O)CCCOc1ccc(Cl)cc1Cl)c1ccncc1 | 47.6 µM |
| COc1ccc(Cc2n[nH]c(=S)n2NC(=O)Nc2ccc(Cl)c(Cl)c2)cc1 | 56.5 µM |
| Fc1c(F)c(C(F)(F)F)c(F)c(F)c1N/N=C\c1cccs1 | 11 µM |
| S=C(NN=C1C2CC3CC(C2)CC1C3)Nc1ccccc1 | 19.4 µM |
| CN(/N=C/c1ccc([N+](=O)[O-])o1)c1ccccc1 | 32.7 µM |
| O=S(=O)(Nc1cccc2cccnc12)c1ccc(S(=O)(=O)N2CCCC2)cc1 | 41.2 µM |
| CC(C)c1ccc(S(=O)(=O)N2CCN(CC(=O)Nc3ccc4c(c3)OCO4)CC2)cc1 | 75.4 µM |
| CC1=NN(c2nc(-c3ccc(Cl)cc3)cs2)C(=O)C1 | 33.5 µM |
| Nc1ccccc1Sc1ccc(C(F)(F)F)cc1[N+](=O)[O-] | 28.9 µM |
| COc1ccc(/C(C)=N/NC(=S)NCCc2ccccc2)cc1 | 5.69 µM |
| O=C(Nc1ccc(F)cc1)c1cccc2c1C(=O)N(Cc1ccccn1)C2 | 18 µM |
| CCC(=O)Oc1ccc(-c2nc(-c3cccnc3)no2)cc1 | 43.4 µM |
| COc1ccc(/C(N)=N/OC(=O)CC2CCCCC2)cc1OC | 24.2 µM |
| CC1CCN(S(=O)(=O)c2ccc(NC(=O)Cc3cccs3)cc2)CC1 | 46.5 µM |
| Cc1cccc(Nc2ncccc2C(=O)NCc2cccs2)c1C | 53.3 µM |
| COc1ccccc1N1CCN(CC(=O)Nc2ccc(Cl)c(C(F)(F)F)c2)CC1 | 58.7 µM |
| Cc1ccc(OCC(=O)O/N=C(\N)Cc2ccc([N+](=O)[O-])cc2)cc1C | 25.1 µM |
| O=C(c1ccc2nc(N3CCCCC3)sc2c1)N1CCN(c2ccccn2)CC1 | 46.1 µM |
| COc1ccc(Cl)cc1NC(=S)NCc1ccco1 | 16.2 µM |
| COc1ccc(C2(O)CC3CCC(C2)N3c2cc(C)nc(-c3ccccc3)n2)cc1 (centres undefined) | 18.2 µM |
| CC(C)C(=O)N1CCN(c2ccccc2NC(=O)c2ccc([N+](=O)[O-])o2)CC1 | 11.5 µM |
| Clc1ccc(Nc2nc(C3CC3)cs2)cc1 | 39.8 µM |
| CCCOc1ccc(N2C(=O)CC(N3CCC(O)(c4cccc(C(F)(F)F)c4)CC3)C2=O)cc1 (centres undefined) | 13 µM |

| Structure (SMILES) | IC50 |
| --- | --- |
| O=C1NCCc2c1[nH]c1c(Cl)ccc(Cl)c21 | 47.8 µM |
| O=C(/C=C/c1cccs1)c1cc(Br)ccc1OC(=O)N1CCOCC1 | 36.4 µM |
| N/C(=N\OC(=O)c1cccc(Cn2cc(C(F)(F)F)ccc2=O)c1)c1ccccc1 | 23.3 µM |
| CN1CCN(c2ccccc2NC(=O)c2ccc(-c3ccc(Cl)c(Cl)c3)o2)CC1 | 15.1 µM |
| N/C(=N\OC(=O)CCC1CCCC1)c1cccc([N+](=O)[O-])c1 | 6.48 µM |
| CC[C@@H]1CC=C[C@H]2[C@H]1C(=O)N(Cc1ccccc1)[C@H]2c1ccoc1 | 7.61 µM |
| Nc1nc(N)c(C=Nc2ccc(Br)cc2)c(Nc2ccc(Br)cc2)n1 | 16.8 µM |
| O=C(C1CCC1)N1CCc2cc(S(=O)(=O)N3CCN(c4ccccn4)CC3)ccc21 | 24.3 µM |
| CCc1c(C)c2c(C)nn(-c3ccccc3)c2oc1=O | 17.2 µM |
| COc1ccc(C(CCNC(C)c2ccccc2)c2ccc(F)cc2)cc1 (centres undefined) | 20.6 µM |
| CCOC(=O)/C=C/C(=O)Nc1cccc([N+](=O)[O-])c1 | 7.03 µM |
| Cc1ccc(-n2cc(-c3ccc([N+](=O)[O-])cc3)[nH]c2=S)c(C)c1 | 87.4 µM |
| CC(=O)SC1CC(=O)N(c2ccc(C(C)(C)C)cc2)C1=O (centres undefined) | 38.8 µM |
| Clc1ccccc1OCc1nnc(-c2ccccc2Br)o1 | 27.9 µM |
| CSc1ccc2nnc(-c3cccc(F)c3)n2n1 | 29.6 µM |
| Cc1ccc(C)c(S(=O)(=O)ON2C(=O)c3ccccc3C2=O)c1 | 22.1 µM |
| Cc1nc(SCC(=O)N2CCN(c3ccccc3)CC2)c2oc3ccccc3c2n1 | 40.7 µM |
| COc1ccc(C(=O)Nc2ccc(-n3nncc3C(C)(C)C)cc2)cc1 | 16.4 µM |
| O=C(Oc1ccc(C(=S)N2CCOCC2)cc1)c1ccccc1[N+](=O)[O-] | 25.4 µM |
| Cc1[nH]n(-c2ccccc2)c(=O)c1C(c1ccccc1[N+](=O)[O-])C(C#N)C#N (centres undefined) | 18.2 µM |
| O=C(Nc1cccc(C(F)(F)F)c1)c1cccnc1NCCc1ccccc1 | 46.6 µM |
| N/C(=N\OC(=O)c1cccc(Cl)c1)c1ccccn1 | 26.7 µM |
| O=C(c1cccs1)c1c[nH]cc1-c1ccccc1 | > 100 µM (inactive) |

| Structure (SMILES) | IC50 |
| --- | --- |
| Cc1nn(Cc2ccc(Cl)cc2)c(C)c1NC(=O)c1c(-c2ccccc2)noc1C | 76.1 µM |
| COc1cccc(-c2nn(C)c3sc(C(=O)N4CCN(c5ccccn5)CC4)cc23)c1 | 46.2 µM |
| FC(F)C(F)(F)C(F)(F)C(F)(F)c1cc(-c2ccccc2)n[nH]1 | 15.2 µM |
| NNc1nc(-c2ccccc2)c2cc(Br)ccc2n1 | 10.1 µM |
| CCOC(=O)c1ccc(N2C(=O)C=CC2=O)cc1 | 2.75 µM |
| O=C(Nc1ccccc1)c1cccnc1NCCc1ccccc1 | 73.3 µM |
| C=CCn1c(SCc2c(F)cccc2Cl)nnc1-c1ccco1 | 34.8 µM |
| CC(C)Cn1c2c(c(O)c(C(=O)Nc3nccs3)c1=O)CCCC2 | 96.8 µM |
| COc1ccc(Cl)cc1NC(=S)NCCc1ccc(F)cc1 | 7.09 µM |
| CCOc1ccccc1N1C(=O)CC(Sc2n[nH]c(-c3ccccc3)n2)C1=O (centres undefined) | 10.6 µM |
| Cc1nn(Cc2c(F)c(F)c(F)c(F)c2F)c(C)c1NC(=O)c1ccc(COc2ccc(Cl)cc2Cl)o1 | 25.5 µM |
| CCCc1cc(NCC2CCCO2)n2c(nc3ccccc32)c1C#N (centres undefined) | 26.7 µM |
| Clc1cccc(Cl)c1/C=C/c1ccn[nH]1 | 22.8 µM |
| O=C(Nc1ccc(N2CCN(C(=O)c3ccccc3)CC2)c(Cl)c1)c1ccc(Br)o1 | 41.8 µM |
| CO/N=C/c1ccc(Sc2ccccc2N)c([N+](=O)[O-])c1 | 56.4 µM |
| Cc1ccc(NC(=O)c2ccc(Cl)c(N3C(=O)C=CC3=O)c2)cc1 | 8.63 µM |
| COc1ccc(-c2nncnn2)cc1 | 8.84 µM |
| Nc1cc(Cl)ccc1Oc1ccc2ccccc2c1 | 23.1 µM |
| O=C(Nc1ccc2c(c1)OCO2)c1cccc2c1C(=O)N(Cc1cccnc1)C2 | 41.2 µM |
| Cc1nn(-c2ccccc2)c(Cl)c1C(=O)N1CCN(c2ncnc3c2cnn3-c2ccccc2)CC1 | > 100 µM (inactive) |
| Cc1cc(/C=C\c2ccc3cc(N(C)C)ccc3[n+]2C)c(C)n1-c1ccccc1 | 9.45 µM |
| O=[N+]([O-])c1ccc2oc(C(O)c3cccc(Cl)c3)cc2c1 (centres undefined) | 15.1 µM |
| Cc1cc(Nc2cccc(F)c2)nc(-c2ccccc2O)n1 | 64.2 µM |

| Structure (SMILES) | IC50 |
| --- | --- |
| OCCN1CCN(CCCN2c3ccccc3Sc3ccc(C(F)(F)F)cc32)CC1 | 31.3 µM |
| O=S(=O)(c1ccc(N2CCC(c3ccc(Cl)cc3)=N2)cc1)N(CCO)CCO | 20.7 µM |
| Cc1ccc(F)c([C@H]2[C@@H]3C=CCC[C@@]3(C)C(=O)N2Cc2ccccc2)c1 | 14.6 µM |
| O=C(CS(=O)(=O)c1ccccc1)Nc1nc(-c2ccccc2)cs1 | 24.2 µM |
| CSc1ccc(-c2nc3cnccn3c2Nc2ccc3c(c2)OCO3)cc1 | 59.4 µM |
| O=C(NNC(=S)Nc1cccc(C(F)(F)F)c1)c1ccc(Cl)cc1Cl | 8.5 µM |
| CC(C)(O)[C@H]1O[C@H]2CC[C@@]3(C)[C@@](O)(CC[C@H]4Cc5c([nH]c6ccccc56)[C@@]43C)C2=CC1=O | 33.5 µM |
| Nc1c(C(=O)Nc2ccccc2)c2nc3ccccc3nc2n1CCCN1CCOCC1 | 8.41 µM |
| Cc1ccccc1SCC(=O)Nc1cc(C(F)(F)F)ccc1N1CCOCC1 | 28.4 µM |
| Cc1ccc(F)c(NC(=O)c2c(-c3ccccc3)noc2C)c1 | 58.6 µM |
| CN(CCc1ccccn1)C1CC(=O)N(c2ccc(Cl)cc2)C1=O (centres undefined) | 24.7 µM |
| Cc1[nH]c2ccccc2c1C(O)CN1CCN(c2cccc(C(F)(F)F)c2)CC1 (centres undefined) | 21.3 µM |
| O=C(NNC(=S)Nc1ccc(Cl)cc1)c1ccccc1OC(F)F | 12 µM |
| COCCNC(=S)N1CCN(c2nc(-c3ccccc3)cs2)CC1 | > 100 µM (inactive) |
| CCN1CCN(C(c2cccnc2)c2cc(Cl)c3cccnc3c2O)CC1 (centres undefined) | 18 µM |
| COc1cc(C(=O)Nc2ccc(Nc3ccccc3)cc2)cc(OC)c1OC | > 100 µM (inactive) |
| CCOC(=O)c1c(-c2ccc(C)o2)csc1NC(=S)NC(=O)N(C)C | 19.5 µM |
| N#Cc1sc2nc(C3CC3)cc(-c3ccc(Cl)cc3)c2c1N | > 100 µM (inactive) |
| O=C(Nc1cc(Sc2ccccn2)cc([N+](=O)[O-])c1)c1cccc(Cl)c1 | 34.9 µM |
| CCCCOc1cccc(-c2cc(C(=O)NNC(=S)NCC)c3ccccc3n2)c1 | 89.3 µM |
| N/C(=N\OC(=O)CCC1CCCC1)c1ccccc1 | 16.7 µM |
| Cc1cc([N+](=O)[O-])ccc1-c1ccc(C2Nc3ccccc3C(=O)N2O)o1 (centres undefined) | 12.4 µM |
| COc1ccc(C/C(=N\OC(C)=O)c2ccc(OC)cc2)cc1 | 25.7 µM |

| Structure (SMILES) | IC50 |
| --- | --- |
| CC(C)(C)OC(=O)N[C@@H](Cc1ccccc1)c1nnc(S(=O)(=O)Cc2cccc(F)c2)o1 | 5.87 µM |
| Cc1ccc(S(=O)(=O)Nc2ccc(N=Nc3ccc(O)cc3)cc2)cc1 | 20.9 µM |
| Cc1sc2ncnc(Oc3ccc(-n4ccnc4)cc3)c2c1C | 46 µM |
| Cc1nnc(SC2CC(=O)N(c3ccccc3)C2=O)s1 (centres undefined) | 31.1 µM |
| FC(F)(F)c1ccc(NC(=S)NC2CCCCC2)cc1 | 27.7 µM |
| CCCCNC(=S)Nc1ccc(C(F)(F)F)cc1 | 18.3 µM |
| COC(=O)c1cccc(Nc2cc(C)nc(-c3ccccc3O)n2)c1 | > 100 µM (inactive) |
| N#Cc1ccccc1Cn1c(=O)n(C2CCCC2)c(=O)c2ccccc21 | 25.4 µM |
| CCCN1C(=O)/C(=N\OCC(=O)Nc2ccc(C(C)C)cc2)c2ccccc21 | 60.9 µM |
| C=CCn1c(N)c(C(=O)Nc2cccc(C)c2)c2nc3ccccc3nc21 | 17 µM |
| Cc1ccc(/C(N)=N/OC(=O)N2CCOCC2)cc1 | 24.5 µM |
| CCOC(=O)N1CCN(S(=O)(=O)c2ccc(C(=O)N(CCN(CC)CC)c3nc4ccc(C)cc4s3)cc2)CC1 | 60.8 µM |
| Cc1ccnn2cc3c(=O)n(C)c(=O)n(C)c3c12 | 63.1 µM |
| FC(F)Sc1ccc(NC(=S)NC2CCCC2)cc1 | 20.8 µM |
| Cc1nc2c(-c3ccccc3)cnn2c(N)c1-c1ccccc1 | 24 µM |
| CCCOc1ccc(CN(CCC#N)C(=S)NC(=O)c2ccccc2)cc1 | 10.9 µM |
| CN1C(=O)C(O)(CC(=O)c2cccc(-n3cccc3)c2)c2ccccc21 (centres undefined) | 40 µM |
| C=CCN(CC=C)S(=O)(=O)c1ccc(NC(=O)COc2ccccc2OC)cc1 | 77.3 µM |
| COc1c(/C=C2\SC(=Nc3ccccc3Cl)NC2=O)cccc1[N+](=O)[O-] | 22.5 µM |
| CCC1CCCCN1c1nc(-c2ccncc2)nc2ccccc12 (centres undefined) | 34.3 µM |
| CCCCCCSc1ccc([C@H]2N[C@@](C)(C(=O)OC)[C@H]3C(=O)N(C)C(=O)[C@@H]23)cc1 | 53.2 µM |
| N/C(=N\OC(=O)CCCc1ccccc1)c1ccccc1Cl | 16.4 µM |
